# Reference: paper PMC12045974, “T cell toxicity induced by tigecycline binding to the mitochondrial ribosome” (Nature Communications, 2025)
# Where “and” joins values, the source holds several entries; their conditions need not be identical. Identical values can stand only once. Like-named read-outs stand apart in the source and are kept apart here.
# How the values were obtained:
# PBMCs = experiment: Cell viability assay (CCK-8), PBMCs; format: cell-based, human; conditions: 72 h
# Outline: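 Buffy-coat PBMCs were seeded at 15,000 cells/well in RPMI-1640 with 10% FBS, 2.05 mM L-glutamine and 55 μM 2-ME. Cells were exposed for 72 h at 37 °C, 5% CO2 to 9 concentrations, up to 300 μM for tetracyclines and up to 900 μM for other inhibitors, with DMSO controls. CCK-8 read after 4 h; IC50 from dose-response curves.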
# Jurkat T cells = experiment: Cell viability assay (CCK-8), Jurkat T cells; format: cell-based, human; conditions: 72 h; for cell vialibity normalized to Vehicle (DMSO): Jurkat, Fig. 1A, in % (unit assumed)
# Outline: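 This CCK-8 viability assay used Jurkat T cells seeded at 6000 per well and grown in supplemented RPMI-1640, 100 μl per well. Antibiotic stocks in DMSO were diluted in medium to give 9 concentrations, and untreated wells received matching DMSO. After treatment, cells were incubated with 10% CCK-8 for 3 h. Results were normalized to vehicle, technical repeats were plotted as mean ± SEM, and IC50 values were derived.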
# HeLa cells = experiment: Cell viability assay (CCK-8), HeLa cells; format: cell-based; conditions: 10 μM
# Outline: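 Viability of HeLa cells was measured with Cell Counting Kit-8 after treatment with drug dilutions in 96-well plates (2000 cells/well, DMEM plus 10% FBS and 2.05 mM L-glutamine, humidified 37 °C, 5% CO2). Untreated wells received equal DMSO. After 1 h CCK-8 incubation, technical-repeat dose-response curves were plotted and IC50 values calculated in GraphPad Prism.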
# [1] = test system: mitochondrial translation; experiment: 35S metabolic labeling, de novo mitochondrial translation assay in Jurkat T cells; format: cell-based, human; conditions: 5 μM, 18 h of treatment
# Method: Jurkat T cells were seeded in 6-well plates at a density of 1 million cells/ml and cultured with different concentrations of antibiotics for 18 h in RPMI-1640 medium (with 10% FBS, 2.05 mM L-glutamine (Sigma), and 55 μM 2-ME (Gibco)). After centrifugation, cells were incubated twice for 5 min at 37 °C in Cys-/Met-free medium (DMEM, high glucose, no glutamine, no methionine, no cysteine, supplemented with 10% dialyzed fetal bovine serum, 1× GlutaMax, and sodium pyruvate), followed by 20 min incubation at 37 °C in Cys-/Met-free medium supplemented with 100 µg/ml emetine to inhibit cytosolic translation (only for mitochondrial translation groups). Subsequently, 1 ml Cys-/Met-free medium supplemented with 200 (for cytosolic translation) or 400 µCi (for mitochondrial translation) of EasyTag EXPRESS [^35S] protein labeling mix (methionine and cysteine) (Perkin Elmer) were added to each sample and incubated for 20 min at 37 °C, 5% CO2. Following labeling, cells were washed three times with 1 ml PBS, harvested by centrifugation (400 × g, 10 min, 4 °C), and stored at −20 °C. Cells were lysed by resuspension in 30 µl PBS supplemented with a Complete EDTA-free protease inhibitor cocktail and 50 U Benzonase nuclease (Sigma) and by application of one freeze-thaw cycle. Protein contents were determined by Pierce BCA assay (Thermo Fisher). […]
# [2] = Homo sapiens, PBMC, PBMCs, Fig. 1A, read-out: cell vialibity normalized to Vehicle (DMSO)
# [3] = Homo sapiens, PBMC, PBMCs, Fig. 1B, read-out: cell vialibity normalized to Vehicle (DMSO)
structure (smiles),measurement,setting,value
"CN(C)c1cc(NC(=O)CNC(C)(C)C)c(O)c2c1C[C@H]1C[C@H]3[C@H](N(C)C)C(O)=C(C(N)=O)C(=O)[C@@]3(O)C(O)=C1C2=O [Tigecycline, tigecycline]",toxicity to PBMCs in comparison with other bacterial protein synthesis inhibitors,PBMCs; Fig. 1B,greatest toxicity to PBMCs
same,viability at 0.137174 µM,"PBMCs; Homo sapiens, PBMC, PBMCs, dose 0.137174 μM, Fig. 1B, read-out: cell vialibity normalized to Vehicle (DMSO)",103%
same,viability at 0.411523 µM,PBMCs; [2],83.9%
same,viability at 0.411523 µM,PBMCs; [3],89.9%
same,viability at 1.23457 µM,PBMCs; [2],75.3%
same,viability at 1.23457 µM,PBMCs; [3],65.1%
same,viability at 3.7037 µM,"PBMCs; Homo sapiens, PBMC, PBMCs, dose 3.7037 μM, Fig. 1B, read-out: cell vialibity normalized to Vehicle (DMSO)",39.4%
same,viability at 11.1111 µM,"PBMCs; Homo sapiens, PBMC, PBMCs, dose 11.1111 μM, Fig. 1A, read-out: cell vialibity normalized to Vehicle (DMSO)",44.2%
same,viability at 33.3333 µM,PBMCs; [2],38.8%
same,viability at 33.3333 µM,PBMCs; [3],21.2%
same,viability at 100 µM,PBMCs; [2],20.8%
same,viability at 100 µM,PBMCs; [3],17.6%
same,IC50,"PBMCs; Homo sapiens, PBMC, PBMCs, after 3 days of treatment, read-out: IC50 (cell survival)",2.02 to 9.42 µM
same,IC50,"Jurkat T cells; Homo sapiens, Jurkat T cells, after 3 days of treatment, read-out: IC50 (cell survival)",2.94 to 3.08 µM
same,cell vialibity normalized to Vehicle (DMSO),Jurkat T cells; dose 0.0457247 μM,109.956 and 111.249 and 111.849
same,cell vialibity normalized to Vehicle (DMSO),Jurkat T cells; dose 0.137174 μM,103.553 and 105.77 and 101.862
same,cell vialibity normalized to Vehicle (DMSO),Jurkat T cells; dose 0.411523 μM,97.7193 and 94.1885 and 95.1333
same,cell vialibity normalized to Vehicle (DMSO),Jurkat T cells; dose 1.23457 μM,79.9123 and 80.3238 and 79.0851
same,cell vialibity normalized to Vehicle (DMSO),Jurkat T cells; dose 3.7037 μM,38.8158 and 37.5675 and 38.722
same,cell vialibity normalized to Vehicle (DMSO),Jurkat T cells; dose 11.1111 μM,18.2456 and 17.144 and 16.3775
same,cell vialibity normalized to Vehicle (DMSO),Jurkat T cells; dose 33.3333 μM,11.1842 and 10.0457 and 10.0296
same,cell vialibity normalized to Vehicle (DMSO),Jurkat T cells; dose 100 μM,4.123 and 3.321 and 4.232
same,cell vialibity normalized to Vehicle (DMSO),Jurkat T cells; dose 300 μM,2.237 and 2.989 and 2.158
same,HeLa cell survival,HeLa cells,relatively resistant
same,inhibition of mitochondrial translation,[1],inhibited mitochondrial translation
